According to PubChem BioAssay (NCI):
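Each compound was tested at five concentrations against cells in 96-well plates for 48 hours. TGI: concentration producing complete growth inhibition.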

What was measured:
Assay in all cases: NCI-60 cell line screen, 48 h
A549 NSCLC = test system: A549 NSCLC
HCC-2998 colon = test system: HCC-2998 colon
KM12 colon = test system: KM12 colon
LOX IMVI melanoma = test system: LOX IMVI melanoma
MALME-3M melanoma = test system: MALME-3M melanoma
NCI-H23 lung = test system: NCI-H23 lung
RPMI-8226 leukemia = test system: RPMI-8226 leukemia
SK-MEL-5 melanoma = test system: SK-MEL-5 melanoma
SNB-75 CNS = test system: SNB-75 CNS
UO-31 renal = test system: UO-31 renal

SMILES | TGI (A549 NSCLC) [µM] | TGI (HCC-2998 colon) [µM] | TGI (KM12 colon) [µM] | TGI (LOX IMVI melanoma) [µM] | TGI (MALME-3M melanoma) [µM] | TGI (NCI-H23 lung) [µM] | TGI (RPMI-8226 leukemia) [µM] | TGI (SK-MEL-5 melanoma) [µM] | TGI (SNB-75 CNS) [µM] | TGI (UO-31 renal) [µM]
Cc1ccc(C(=O)Nc2ccc(S(=O)(=O)O)c3cc(S(=O)(=O)O)cc(S(=O)(=O)O)c23)cc1NC(=O)c1cccc(NC(=O)Nc2cccc(C(=O)Nc3cc(C(=O)Nc4ccc(S(=O)(=O)O)c5cc(S(=O)(=O)O)cc(S(=O)(=O)O)c45)ccc3C)c2)c1 (tested in a mixture with another compound) | > 50 | > 50 | > 50 | > 50 | > 50 | > 50 | > 50 | > 50 | > 50 | > 50
CCCCCCC(C)OC(=O)/C=C(\CC(=O)OC(C)CCCCCC)C(=O)OC(C)CCCCCC (centres undefined) | > 100 | > 100 |  | > 100 | > 100 | > 100 | > 100 | > 100 | > 100 | > 100
CSc1nc2c(=O)n(-c3ccccc3)c(=S)n(-c3ccccc3)c2s1 | > 100 | > 100 | > 100 | > 100 | > 100 | > 100 | > 100 | > 100 | 91.7 | > 100
CCOc1ccc2nc(NC(NC(=O)c3cccnc3)(C(F)(F)F)C(F)(F)F)sc2c1 | > 100 | 84.3 | > 100 |  | > 100 | 65.5 |  | 49.2 | 68.2 | > 100
CC(C)(C)[C@H]1CCC2(OCCO2)[C@](O)(CCCO)C1 | > 100 | > 100 | > 100 | > 100 | > 100 | > 100 | > 100 | > 100 | > 100 | > 100
C=C(C(=O)OC)c1cc2ccccc2n1S(=O)(=O)c1ccccc1 | 31.9 | 8.35 | 5.99 | 8.21 | 5.72 | 11.5 | 5.43 | 5.36 | 14.5 | 9.41
CCN1CCC(O)(c2ccc(Oc3ccc(C)cc3)cc2)C(C(=O)c2ccc(Oc3ccc(C)cc3)cc2)C1 (centres undefined) | 26.8 | 20.8 | 17.8 | 13.5 | 29.7 | 30.2 | 4.26 | 20.4 | 20.4 | 20.6
CCN(CC)CCCC(C)NC(=O)c1ccc2c(c1)C(=O)c1ccccc1C2=O (centres undefined) | 57.4 | 33.5 | 35.7 | 39.6 | 27.6 | 24.2 | 52.4 | 28.4 | > 86.9 | 69
CC(=O)N1c2ccccc2C(C)C1c1[nH]c2ccccc2c1C (centres undefined) | 83.2 | 34 | 38.4 | > 100 | > 100 | > 100 | 73 | 28.3 | 50.1 | 47.6
N#Cc1nc(CCC(c2nc(C#N)c(N)o2)N2C(=O)c3ccccc3C2=O)oc1N (centres undefined) | > 100 | > 100 | > 100 | > 100 | > 100 | > 100 | > 100 | > 100 | > 100 | > 100
CSCCC(NC(=O)OCc1ccccc1)NC(=O)OCc1ccccc1 | > 100 | > 100 |  | > 100 |  | > 100 | > 100 | > 100 | > 100 | > 100
CC(=O)OCC1=C(C)C[C@H]([C@@H](COC(C)=O)C2CCC3C4C[C@H]5O[C@]56CC=CC(=O)[C@]6(C)C4CC[C@@]32C)OC1=O (some centres undefined) | 7.12 | 1.2 | 0.593 | 0.552 | 0.963 | 3.59 | 0.181 | 0.875 | 6.09 | 2.96
c1ccc(-c2cc(-c3cccs3)c(-c3cccs3)o2)cc1 | > 100 | > 100 | > 100 | > 100 |  | > 100 | > 100 | > 100 | > 100 | > 100
Clc1c(C(Cl)(Cl)Cl)nsc1N1CCCCC1 | > 100 | 47.9 | 55.7 | 32.5 | 40.8 | 34.7 | 40.9 | 29.6 | 81.8 | 44.3
C=C(C)[C@@H]1CCC2=C[C@H](CC(C)=CC3=CC(C)=C(O3)[C@@H]1OC)OC2=O | > 100 | > 100 | > 100 |  | > 100 |  | > 100 | > 100 | > 100 | > 100
COc1ccc(-c2cc(-c3cc(F)c(Cl)cc3Cl)on2)cc1OC | > 100 |  | > 100 | > 100 | > 100 | > 100 | > 100 | 43.3 | > 100 | > 100
CCOC(=O)C(C(=O)OCC)=C1NC2(c3ccccc3Nc3ccc(C)cc32)C(C(=O)OC)S1 (centres undefined) | > 100 | > 100 | > 100 | > 100 | 63.5 | > 100 | > 100 | 66.9 | 62.4 | > 100
C=CCN(c1cc(OC)c2[nH]cc(C)c2c1[N+](=O)[O-])S(C)(=O)=O | > 100 | > 100 | > 100 | > 100 | > 100 | > 100 | > 100 | > 100 | > 100 | > 100
CCSc1nc(N)c2c(-c3ccccc3)c3c(nc2n1)CCC3 | > 100 |  | > 100 | > 100 | > 100 | > 100 | > 100 | > 100 | > 100 | 9.02
CCN(CC)CCCOc1cc2c(cc1OC)C(=O)N1CCC[C@H]1C=N2 | > 100 |  | 48.4 | 31.3 | > 100 |  | 53.8 | 63.7 |  | > 100
COc1cc2c(cc1OCCCC(=O)Nc1cc(C(=O)NCCCN(C)C)n(C)n1)N=CC1CCCN1C2=O (centres undefined) | > 41.6 | 28.3 | > 100 | > 21.2 | 14.2 | > 26.2 | 17.6 | 14 | 22.3 | 24.3
CCN(CC)C(=O)N1CN(c2ccccc2)C2(CCN(CCCSc3ccc(F)cc3)CC2)C1=O | > 100 |  | 25.3 | 10.7 | 29.6 | 22.4 | 41.6 | 12.3 | 50.3 | 22.6

SMILES | TGI (A549 NSCLC) [µM] | TGI (HCC-2998 colon) [µM] | TGI (KM12 colon) [µM] | TGI (LOX IMVI melanoma) [µM] | TGI (MALME-3M melanoma) [µM] | TGI (NCI-H23 lung) [µM] | TGI (RPMI-8226 leukemia) [µM] | TGI (SK-MEL-5 melanoma) [µM] | TGI (SNB-75 CNS) [µM] | TGI (UO-31 renal) [µM]
Cc1cc2nc(N3C(=O)/C(=C/c4ccc(Cl)cc4)N=C3c3ccccc3)sc2cc1C | > 100 | 48.5 | 92.3 | 56.2 |  |  | > 100 | 43.6 | 63.9 | > 100
NC1CC(=O)c2sccc21 (centres undefined) | > 100 | > 100 | > 100 |  |  | > 100 | > 100 | > 100 | > 100 | > 100
CC[C@@]12C=CC(=S)N(CCSc3ccccc3)[C@@H]1c1c(n(S(=O)(=O)c3ccc(OC)cc3)c3ccccc13)CC2 | > 100 | > 100 | > 100 | > 100 | > 100 | > 100 |  | > 100 | > 100 | > 100
c1ccc(C(CCN2CC3CCC(CC3)C2)c2ccccc2)cc1 | > 100 |  | 87.4 | 30.6 | 29.9 | 36.1 | 36.7 | 30.1 | 85.9 | 45.7
O=c1c2ccccc2[nH]c2cc(O)cc(O)c12 | > 100 | > 100 | > 100 | > 100 | > 100 | > 100 |  | 85 | > 100 | > 100
O=C1c2ccccc2-c2nc(/C=C/c3ccccc3)cc3c2c1nc1ccccc13 | > 100 | 64.6 | 68.4 |  |  | 28.9 | > 100 | 8.8 | 47.7 | > 100
NS(=O)(=O)c1nnc(NS(=O)(=O)c2ccccc2C(=O)O)s1 | > 100 | > 100 | > 100 | > 100 | > 100 | > 100 | > 100 | > 100 |  | > 100
CC(NC(C#N)CC12CC3CC(CC(C3)C1)C2)c1ccccc1 (centres undefined) | > 100 | > 100 |  | 62.7 | > 100 |  | 44 | > 100 |  | > 100
O=[N+]([O-])c1ccc2c(c1)c(S(=O)(=O)O)cc1nonc12 | > 100 |  | > 100 | > 100 | > 100 | > 100 | > 100 | > 100 |  | > 100
Oc1cccc(-c2cn3cc(C(F)(F)F)ccc3n2)c1 | > 100 | 54 | > 100 | > 100 | > 100 | > 100 |  | 56.5 |  | > 100
O=C1CCCC2=C1CC1=C(CCCC1=O)N2c1ccccc1 | > 100 | > 100 | > 100 | > 100 |  | > 100 | > 100 | > 100 | > 100 | > 100
COc1ccc(Oc2nc(C#CC(C)(C)O)nc(Oc3ccc(OC)cc3)n2)cc1 | 28.4 |  | 29.2 | 3 | 34.6 | 21.8 |  | 27.8 | 31.3 | 2.88
CC(Cc1ccccc1)NC1=NCCO1 (centres undefined) | > 100 | 71 |  | 34.9 |  | 51 | 67.3 | > 100 | > 100 | 50.4
O=C(OCc1ccccc1)N1CCN(C(=O)OCc2ccccc2)CCN(C(=O)OCc2ccccc2)CCN(C(=O)OCc2ccccc2)CCN(C(=O)OCc2ccccc2)CC1 | > 100 | > 100 | > 100 | > 100 | 61.2 |  |  | 33.3 | 96.6 | > 100
N#Cc1ccc(Oc2nc3ccc(C(F)(F)F)cc3nc2-c2ccccc2)cc1 | 35.9 | 32.3 | 48.6 | 91.1 | 45.3 | 32 |  | 46.5 | 32.1 | 46.1
CC(=O)O[C@H]1[C@@H](OC(C)=O)C(C)(C)/C=C/[C@H](C)C(=O)[C@@]2(OC(C)=O)C[C@@](C)(OC(C)=O)[C@H](OC(C)=O)[C@@H]2[C@H]2OC(=O)CC[C@@]2(OC(=O)c2ccccc2)[C@@H]1OCC(C)C |  | > 100 | > 100 | > 100 | > 100 | > 100 |  | > 100 | 66.2 | > 100
NC(=O)CC(N=C1C(=O)OC(C(O)CO)C1=NC(CC(N)=O)C(=O)O)C(=O)O (centres undefined) | > 100 | > 100 | > 100 |  | > 100 | > 100 | > 100 | > 100 | > 100 | > 100
Nc1ccc(Oc2ccc(C34CC5CC6C3CC3CC4C(C5)C6(c4ccc(Oc5ccc(N)c(O)c5)cc4)C3)cc2)cc1O | 12.9 | 7.57 | 47.8 | > 34.9 | 30.4 | 31.2 | 7.94 | 9.24 |  | 11.2
Cn1c(=O)c2c(nc(Nc3ccc(Cl)cc3)n3c(=O)n(-c4ccccc4)c(=O)n23)n(C)c1=O | > 100 | > 100 | > 100 | > 100 |  | > 100 | > 100 | > 100 | > 100 | > 100
N=c1c2c(=S)n(-c3ccccc3)c(=S)n(-c3ccccc3)c2nc(SCCN2CCOCC2)n1-c1ccccc1 | 3.36 | 3.24 | 6.09 | 3.71 | 3.49 | 7.02 | 3.97 | 6.66 | 4.54 | 
COc1ccc(/C=N/NC(=O)c2cnc3[nH]c(=O)n(C)c(=O)c3c2)cc1 | > 100 | > 100 | > 100 |  | > 100 | > 100 | > 100 | > 100 | 38.6 | > 100
